Experiments:
[1] = target: PIM2 (Homo sapiens, UniProt Q9P1W9); assay: Pim 2 AlphaScreen assay (high ATP); type: biochemical; conditions: read-out: Pim2 IC50
How it was run: (§1)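 This is a bead-based AlphaScreen run at high ATP (11-125× Km) with biotin-Bad peptide (100 nM in the substrate mix), in 50 mM Hepes pH 7.5, 5 mM MgCl2, 0.05% BSA, 0.01% Tween-20, 1 mM DTT and 2.5% DMSO final. After ~2 h the reaction was stopped with EDTA. Phospho-peptide was detected overnight with anti-phospho Ser/Thr antibody on Protein A and streptavidin beads, giving IC50.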

[2] = system: KMS11 (human myeloma cell line); assay: Cell proliferation assay (CellTiter-Glo), KMS11; type: cell-based; conditions: Homo sapiens, KMS-11; KMS11 cells, cell proliferation; read-out: KMS11-Luc EC50
How it was run: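 KMS11 cells in IMDM with 10% FBS and sodium pyruvate, seeded at 2000 cells/well on assay day. Compound added at 2× to equal volume of cells, incubated 3 days at 37° C. Viability read by CellTiter-Glo luminescence; EC50 derived.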

[3] = target: PIM1 (Homo sapiens, UniProt P11309); assay: Pim 1 AlphaScreen assay (high ATP); type: biochemical; conditions: read-out: Pim1 IC50
How it was run: as §1

[4] = target: GSK3β (Homo sapiens, UniProt P49841); assay: GSK3β ATP depletion assay; type: biochemical; conditions: ATP depletion assay; read-out: GSK3b IC50
How it was run: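 Human GSK3β (5 nM) preincubated 15 min with 10 μM biotinylated phospho-CREB peptide in pH 7.5 Tris buffer (15 mM MgCl2, 1 mM DTT, 0.1% BSA, 2.5% DMSO). Reaction started with 2 μM ATP and run to about 50% ATP depletion. Remaining ATP measured by KinaseGlo luminescence.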

[5] = target: PIM3 (Homo sapiens, UniProt Q86V86); assay: Pim 3 AlphaScreen assay (high ATP); type: biochemical; conditions: read-out: Pim3 IC50
How it was run: as §1

PIM2, sequence (Q9P1W9 whole entry): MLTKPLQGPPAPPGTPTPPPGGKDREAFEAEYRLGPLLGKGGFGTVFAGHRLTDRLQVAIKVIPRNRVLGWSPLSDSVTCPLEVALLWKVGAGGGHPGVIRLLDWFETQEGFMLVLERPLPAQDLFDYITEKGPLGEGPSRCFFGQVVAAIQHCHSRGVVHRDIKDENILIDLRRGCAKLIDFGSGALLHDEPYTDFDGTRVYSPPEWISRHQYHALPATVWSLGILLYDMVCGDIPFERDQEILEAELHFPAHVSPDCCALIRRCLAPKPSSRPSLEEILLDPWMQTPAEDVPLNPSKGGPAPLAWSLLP
GSK3β, sequence (P49841 whole entry, species assumed): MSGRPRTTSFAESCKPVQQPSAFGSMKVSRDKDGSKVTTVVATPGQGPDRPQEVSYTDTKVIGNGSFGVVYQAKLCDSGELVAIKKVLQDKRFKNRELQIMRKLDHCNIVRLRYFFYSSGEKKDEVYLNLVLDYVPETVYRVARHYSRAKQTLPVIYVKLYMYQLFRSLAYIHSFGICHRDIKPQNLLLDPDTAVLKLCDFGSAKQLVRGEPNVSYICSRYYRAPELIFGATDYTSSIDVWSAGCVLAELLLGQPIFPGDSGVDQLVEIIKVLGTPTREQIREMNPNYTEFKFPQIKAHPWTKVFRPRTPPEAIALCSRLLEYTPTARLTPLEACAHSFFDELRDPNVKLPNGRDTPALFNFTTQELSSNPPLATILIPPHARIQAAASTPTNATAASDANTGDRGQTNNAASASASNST
PIM1, sequence (P11309 whole entry): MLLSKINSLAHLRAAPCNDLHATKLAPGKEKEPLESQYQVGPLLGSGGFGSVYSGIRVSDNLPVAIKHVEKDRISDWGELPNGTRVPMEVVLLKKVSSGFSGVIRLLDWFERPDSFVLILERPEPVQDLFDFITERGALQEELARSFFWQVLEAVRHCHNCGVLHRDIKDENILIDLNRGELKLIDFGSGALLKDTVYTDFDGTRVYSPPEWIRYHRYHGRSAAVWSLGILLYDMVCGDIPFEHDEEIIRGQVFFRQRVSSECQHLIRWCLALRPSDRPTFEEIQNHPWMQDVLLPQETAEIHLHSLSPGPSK

SMILES | IC50 [1] [nM] | EC50 [2] [nM] | IC50 [3] [nM] | IC50 [4] [nM] | IC50 [5] [nM]
CC(C)[C@H]1OC(c2ccncc2NC(=O)c2ccc(F)c(-c3c(F)ccc(C(=O)N(C)C)c3F)n2)C[C@@H](N)[C@@H]1O (stereo in doubt) [Example 317, N-(4-((2S,4R,5S,6R)-4-amino-5-hydroxy-6-isopropyltetrahydro-2H-pyran-2-yl)pyridin-3-yl)-6-(3-(dimethylcarbamoyl)-2,6-difluorophenyl)-5-fluoropicolinamide] | 6.6 | 80 | 1 | > 25000 | 9.6
COCCOc1cc(F)c(-c2nc(C(=O)Nc3cnccc3C3C[C@@H](N)[C@H](O)[C@@H](C(C)C)O3)ccc2F)c(F)c1 (stereo in doubt) [Example 318, N-(4-((2S,4R,5S,6R)-4-amino-5-hydroxy-6-isopropyltetrahydro-2H-pyran-2-yl)pyridin-3-yl)-6-(2,6-difluoro-4-(2-methoxyethoxy)phenyl)-5-fluoropicolinamide] | 2.3 | 80 | 0.05 | 1160 | 1.7
CC(C)[C@@H]1C[C@H](N)CC(c2ccncc2NC(=O)c2ccnc(-c3c(F)cccc3F)n2)O1 (stereo in doubt) [Example 328, N-(4-((2S,4S,6S)-4-amino-6-isopropyltetrahydro-2H-pyran-2-yl)pyridin-3-yl)-2-(2,6-difluorophenyl)pyrimidine-4-carboxamide] | 165 | 540 | 7 | – | 172
COc1cc(F)c(-c2nc(C(=O)Nc3cnccc3[C@H]3C[C@@H](N)[C@](C)(O)[C@@H](C4CC4)O3)ccc2F)c(F)c1 [Example 265, N-(4-((2R,4R,5S,6R)-4-amino-6-cyclopropyl-5-hydroxy-5-methyltetrahydro-2H-pyran-2-yl)pyridin-3-yl)-6-(2,6-difluoro-4-methoxyphenyl)-5-fluoropicolinamide] | 9.6 | – | 0.13 | 1050 | 2.3
Cc1cc(F)c(-c2nc(C(=O)Nc3cnccc3[C@H]3C[C@@H](N)[C@H](O)[C@@H](C(C)(C)C)O3)ccc2F)c(F)c1 [Example 270, N-(4-((2R,4R,5S,6R)-4-amino-6-tert-butyl-5-hydroxytetrahydro-2H-pyran-2-yl)pyridin-3-yl)-6-(2,6-difluoro-4-methylphenyl)-5-fluoropicolinamide] | 3.1 | – | 0.03 | 1060 | 0.5
CC(C)[C@H]1O[C@@H](c2ccncc2NC(=O)c2ccc(F)c(-c3c(F)cccc3F)n2)C[C@@H](N)[C@@H]1O [Example 271, N-(4-((2R,4R,5S,6R)-4-amino-5-hydroxy-6-isopropyltetrahydro-2H-pyran-2-yl)pyridin-3-yl)-6-(2,6-difluorophenyl)-5-fluoropicolinamide] | 4.3 | – | 0.15 | 2750 | 2.1
CC(C)(C)[C@H]1O[C@@H](c2ccncc2NC(=O)c2ccnc(-c3c(F)cccc3F)n2)C[C@@H](N)[C@@H]1O [Example 277, N-(4-((2R,4R,5S,6R)-4-amino-6-(tert-butyl)-5-hydroxytetrahydro-2H-pyran-2-yl)pyridin-3-yl)-2-(2,6-difluorophenyl)pyrimidine-4-carboxamide] | 27.5 | – | 1.05 | 499 | 22.7
C[C@]1(O)[C@H](N)C[C@H](c2ccncc2NC(=O)c2ccc(F)c(-c3c(F)cccc3F)n2)OC12CC2 [Example 289, N-(4-((5R,7R,8S)-7-amino-8-hydroxy-8-methyl-4-oxaspiro[2.5]octan-5-yl)pyridin-3-yl)-6-(2,6-difluorophenyl)-5-fluoropicolinamide] | 213 | – | 2.5 | 6930 | 29.7
CC(C)[C@H]1O[C@@H](c2ccncc2NC(=O)c2ccc(F)c(-c3c(F)ccc(C#N)c3F)n2)C[C@@H](N)[C@@H]1O [Example 329, N-(4-((2R,4R,5S,6R)-4-amino-5-hydroxy-6-isopropyltetrahydro-2H-pyran-2-yl)pyridin-3-yl)-6-(3-cyano-2,6-difluorophenyl)-5-fluoropicolinamide] | 14.7 | 190 | 0.7 | – | 14.7
CC(C)[C@H]1O[C@@H](c2ccncc2NC(=O)c2ccc(F)c(-c3ccc(C#N)cc3F)n2)C[C@@H](N)[C@@H]1O [Example 330, N-(4-((2R,4R,5S,6R)-4-amino-5-hydroxy-6-isopropyltetrahydro-2H-pyran-2-yl)pyridin-3-yl)-6-(4-cyano-2-fluorophenyl)-5-fluoropicolinamide] | 229 | 2430 | 2 | – | 232
CC[C@H]1O[C@@H](c2ccncc2NC(=O)c2ccc(F)c(-c3c(F)cccc3F)n2)C[C@@H](N)[C@@H]1O [Example 331, N-(4-((2R,4R,5S,6R)-4-amino-6-ethyl-5-hydroxytetrahydro-2H-pyran-2-yl)pyridin-3-yl)-6-(2,6-difluorophenyl)-5-fluoropicolinamide] | 11.8 | 70 | 0.2 | – | 6

Further lines, results first:

IC50 [1] [nM] | EC50 [2] [nM] | IC50 [3] [nM] | IC50 [4] [nM] | IC50 [5] [nM] | SMILES
5.1 | 60 | 0.27 | 4390 | 5.76 | CNC(=O)c1ccc(F)c(-c2nc(C(=O)Nc3cnccc3C3C[C@@H](N)[C@H](O)[C@@H](C(C)C)O3)ccc2F)c1F (stereo in doubt) [Example 316, N-(4-((2S,4R,5S,6R)-4-amino-5-hydroxy-6-isopropyltetrahydro-2H-pyran-2-yl)pyridin-3-yl)-6-(2,6-difluoro-3-(methylcarbamoyl)phenyl)-5-fluoropicolinamide]
3.5 | 30 | 0.07 | 1570 | 1.8 | CC(C)[C@H]1OC(c2ccncc2NC(=O)c2ccc(F)c(-c3c(F)cc(OCCO)cc3F)n2)C[C@@H](N)[C@@H]1O (stereo in doubt) [Example 319, N-(4-((2S,4R,5S,6R)-4-amino-5-hydroxy-6-isopropyltetrahydro-2H-pyran-2-yl)pyridin-3-yl)-6-(2,6-difluoro-4-(2-hydroxyethoxy)phenyl)-5-fluoropicolinamide]
394 | – | 1.98 | 6060 | 27.5 | C[C@@]1(O)[C@@H](N)C[C@@H](c2ccncc2NC(=O)c2ccc(F)c(-c3c(F)cccc3F)n2)OC12CC2 [Example 266, N-(4-((5S,7S,8R)-7-amino-8-hydroxy-8-methyl-4-oxaspiro[2.5]octan-5-yl)pyridin-3-yl)-6-(2,6-difluorophenyl)-5-fluoropicolinamide]
213 | – | 2.52 | 6930 | 29.7 | C[C@]1(O)[C@H](N)C[C@H](c2ccncc2NC(=O)c2ccc(F)c(-c3c(F)cccc3F)n2)OC12CC2 [Example 267, N-(4-((5R,7R,8S)-7-amino-8-hydroxy-8-methyl-4-oxaspiro[2.5]octan-5-yl)pyridin-3-yl)-6-(2,6-difluorophenyl)-5-fluoropicolinamide]
20.3 | – | 0.16 | 207 | 3.6 | CC(C)(C)[C@H]1O[C@@H](c2ccncc2NC(=O)c2csc(-c3c(F)cccc3F)n2)C[C@@H](N)[C@@H]1O [Example 268, N-(4-((2R,4R,5S,6R)-4-amino-6-tert-butyl-5-hydroxytetrahydro-2H-pyran-2-yl)pyridin-3-yl)-2-(2,6-difluorophenyl)thiazole-4-carboxamide]
2.4 | – | 0.03 | 613 | 0.5 | COc1cc(F)c(-c2nc(C(=O)Nc3cnccc3[C@H]3C[C@@H](N)[C@H](O)[C@@H](C(C)(C)C)O3)ccc2F)c(F)c1 [Example 269, N-(4-((2R,4R,5S,6R)-4-amino-6-tert-butyl-5-hydroxytetrahydro-2H-pyran-2-yl)pyridin-3-yl)-6-(2,6-difluoro-4-methoxyphenyl)-5-fluoropicolinamide]
10.9 | – | 0.66 | 1220 | 9 | CC(C)[C@H]1O[C@@H](c2ccncc2NC(=O)c2nc(-c3c(F)cccc3F)ncc2N)C[C@@H](N)[C@@H]1O [Example 272, 5-amino-N-(4-((2R,4R,5S,6R)-4-amino-5-hydroxy-6-isopropyltetrahydro-2H-pyran-2-yl)pyridin-3-yl)-2-(2,6-difluorophenyl)pyrimidine-4-carboxamide]
310 | 4200 | 6.3 | – | 157 | CC[C@@H]1O[C@H](c2ccncc2NC(=O)c2ccc(F)c(-c3c(F)cccc3F)n2)C[C@H](N)[C@H]1O [Example 332, N-(4-((2S,4S,5R,6S)-4-amino-6-ethyl-5-hydroxytetrahydro-2H-pyran-2-yl)pyridin-3-yl)-6-(2,6-difluorophenyl)-5-fluoropicolinamide]
